Among the data in US10138229B2, “Heteroaromatic compounds as BTK inhibitors” (Boehringer Ingelheim International GmbH, priority 2012, dated 2018) are IC50 values, retold here.

The term IC50 denotes the point on the concentration scale where inhibition reaches its midpoint. Read a high IC50 as weaker potency.

The target of this experiment is full-length human His-tagged BTK (Homo sapiens (Human), UniProt Q06187). Put plainly: BTK Assay (HTRF, Cisbio KinEASE-TK). In kind it is biochemical. To be noted: 6 nM BTK, 30 uM ATP, 15 min preincubation. For orientation: Time-resolved FRET reads energy transfer from a long-lived donor to a nearby acceptor.
Sequence of full-length human His-tagged BTK (Q06187 whole entry): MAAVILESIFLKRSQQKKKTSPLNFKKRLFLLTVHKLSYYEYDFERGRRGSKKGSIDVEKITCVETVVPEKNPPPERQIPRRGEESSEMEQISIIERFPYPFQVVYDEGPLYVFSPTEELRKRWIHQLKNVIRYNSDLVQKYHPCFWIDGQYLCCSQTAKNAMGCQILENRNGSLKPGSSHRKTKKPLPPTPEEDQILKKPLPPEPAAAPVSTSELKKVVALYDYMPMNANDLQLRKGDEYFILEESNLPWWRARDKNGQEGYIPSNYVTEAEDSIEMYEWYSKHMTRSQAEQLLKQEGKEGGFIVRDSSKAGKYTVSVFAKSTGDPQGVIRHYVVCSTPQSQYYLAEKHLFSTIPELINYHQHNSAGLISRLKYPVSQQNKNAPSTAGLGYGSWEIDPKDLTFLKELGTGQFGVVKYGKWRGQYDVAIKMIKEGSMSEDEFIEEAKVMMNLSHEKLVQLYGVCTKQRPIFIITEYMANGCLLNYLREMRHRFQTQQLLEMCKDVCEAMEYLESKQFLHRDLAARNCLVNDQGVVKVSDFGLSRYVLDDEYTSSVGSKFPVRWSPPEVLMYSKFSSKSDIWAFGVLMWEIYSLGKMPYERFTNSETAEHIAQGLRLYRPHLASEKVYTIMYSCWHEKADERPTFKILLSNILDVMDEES
Procedure: An HTRF assay (Cisbio KinEASE-TK cat #62TKOPEC) was performed to quantitate the ability of test compounds to inhibit BTK mediated phosphorylation of substrate. Assays were assembled in 384 well plates where 6 nM of full-length human His-tagged BTK (Life Technologies cat # PV3587) and test compound at varying concentrations were preincubated for 15 minutes at 28° C. Then, 1 uM of TK substrate-biotin and 30 uM ATP were added and incubated for an additional 30 minutes at 28° C.
In the case of `CC#CC(=O)N1CC2(CC(n3nc(-c4ccc(OCCC)c(Cl)c4)c(C(N)=O)c3N)C2)C1` [Example 148], the IC50 was determined as 3 nM.

`C=CC(=O)N1CCC[C@@H](n2cc(C(N)=O)c(-c3ccc(Oc4cccc(Cl)c4)cc3)n2)C1` [Example 68] displayed an IC50 of 41 nM. `CC#CC(=O)N1CC2(CC(n3nc(-c4ccc(C(F)(F)F)c(F)c4)c(C(N)=O)c3N)C2)C1` [Example 141] returned an IC50 of 14 nM. Regarding `CN(C)C/C=C/C(=O)N1CC[C@]2(C1)C[C@H](n1cc(C(N)=O)c(-c3ccc(Oc4ccccc4)cc3)n1)C2` [Example 37], the IC50 came out at 38 nM. Under `CC#CC(=O)N1CC[C@]2(C1)C[C@@H](n1nc(-c3ccc(Oc4ccccc4)cn3)c(C(N)=O)c1N)C2` [Example 119] stands 11 nM; under `C=CC(=O)NC1CC2(C1)CC(n1nc(-c3ccc(Oc4ccccc4)cc3)c(C(N)=O)c1N)C2` (stereo not drawn) [Example 97], 0.8 nM; under `C=CC(=O)N1CCC[C@@H](n2cc(C(N)=O)c(-c3ccc(Oc4ccc(Cl)cc4)cc3)n2)C1` [Example 70], 45 nM. With `C=CC(=O)N1CCC(n2cc(C(N)=O)c(-c3ccc(Oc4ccccc4)cc3)n2)CC1` [Example 55] the figure was 6.6 nM; with `C=CC(=O)N1CCC[C@@H](n2cc(C(N)=O)c(-c3cccc(NS(C)(=O)=O)c3)n2)C1` [Example 17], 4800 nM. In turn, `C=CC(=O)N1CC2(CC(n3nc(-c4ccc(OC5CCOC5)cc4)c(C(N)=O)c3N)C2)C1` (stereo not drawn) [Example 134] registered an IC50 of 120 nM. Under `C=CC(=O)N1CCC[C@@H](n2cc(C(N)=O)c(-c3ccc(NS(=O)(=O)c4cccc(Cl)c4Cl)cc3)n2)C1` [Example 61] stands 780 nM; under `C=CC(=O)N1CC[C@]2(C1)C[C@H](n1nc(-c3ccc(C(F)(F)F)cc3)c(C(N)=O)c1N)C2` [Example 130], 6.4 nM. Under `CC#CC(=O)N1CC[C@]2(C1)C[C@@H](n1cc(C(N)=O)c(-c3ccc(Oc4ccccc4)cc3)n1)C2` [Example 89] stands 34 nM; under `C=CC(=O)N1CCC[C@@H](n2cc(C(N)=O)c(-c3ccc(Oc4ccc(S(C)(=O)=O)cc4)cc3)n2)C1` [Example 64], 6500 nM; under `C=CC(=O)N1CCC[C@@H](n2cc(C(N)=O)c(-c3ccc(Oc4ccc(C#N)cc4)cc3)n2)C1` [Example 75], 6600 nM. Under `C=CC(=O)N1CCC[C@@H](n2cc(C(N)=O)c(-c3ccc(Oc4ccccc4)cc3)n2)C1` [Example 29] stands 3.2 nM.

The molecule `CC#CC(=O)N1CC2(CC(n3nc(-c4ccc(Oc5ccccc5)nc4)c(C(N)=O)c3N)C2)C1` [Example 102] registered an IC50 of 2.7 nM. The IC50 values of the last two molecules are within 1.5-fold of each other. With `C=CC(=O)N1CC[C@]2(C1)C[C@@H](n1nc(-c3ccc(Oc4ccccc4)cn3)c(C(N)=O)c1N)C2` [Example 120] the figure was 3.5 nM. With `C=CC(=O)N1CCC[C@@H](n2cc(C(N)=O)c(-c3ccc(-n4nc(C)cc4C)cc3)n2)C1` [Example 14] the figure was 7800 nM; with `C=CC(=O)N1CCC[C@H]1Cc1nc(-c2ccc(Oc3ccccc3)cc2)c(C(N)=O)s1` [Example 50], 3 nM; with `CC#CC(=O)N1CC2(CC(n3nc(-c4ccc(F)c(OCC(F)(F)F)c4)c(C(N)=O)c3N)C2)C1` [Example 149], 100 nM. `C=CC(=O)N1CCC[C@@H](n2cc(C(N)=O)c(-c3ccc(Oc4ccc(C)cc4)cc3)n2)C1` [Example 71] displayed a half-inhibitory concentration (IC50) of 14 nM.

For `CC#CC(=O)N1CCC[C@@H](c2nc(-c3ccc(Oc4ccccc4)cc3)c(C(N)=O)s2)C1` [Example 52], the IC50 is 18 nM. The IC50 values of the last two molecules are within 1.5-fold of each other.

Consider `CC#CC(=O)N1CCC2(CC1)CC(c1nc(-c3ccc(Oc4ccccc4)cc3)c(C(N)=O)s1)C2` [Example 85], for which the IC50 was 300 nM. With `CC#CC(=O)N1CC[C@]2(C1)C[C@@H](n1nc(-c3ccc(OCCC)cc3)c(C(N)=O)c1N)C2` [Example 127] the figure was 15 nM; with `C=CC(=O)N1CCC[C@@H](n2cc(C(N)=O)c(-c3ccc(Oc4ccccc4)c(F)c3)n2)C1` [Example 23], 10 nM. With `C=CC(=O)N1CCC[C@@H](n2cc(C(N)=O)c(-c3ccc(Oc4ccccc4)c(Cl)c3)n2)C1` [Example 24] the figure was 9.4 nM. With `C=CC(=O)N1CC[C@]2(C1)C[C@H](n1nc(-c3cccc(OC)c3)c(C(N)=O)c1N)C2` [Example 155] the figure was 7.3 nM; with `CC#CC(=O)N1CC[C@]2(C1)C[C@@H](n1nc(-c3ccc(Oc4ccccc4)cn3)c(C(N)=O)c1N)C2` [Example 118], 0.5 nM; with `C=CC(=O)N1CC2(CC(n3nc(-c4ccc(O)cc4)c(C(N)=O)c3N)C2)C1` [Example 133], 8.4 nM. In the case of `C=CC(=O)N1CCC[C@@H](n2cc(C(N)=O)c(-c3ccc(C(=O)N4CCCCC4)cc3)n2)C1` [Example 94], 8200 nM corresponded to half-maximal inhibition (IC50). For `C=CC(=O)N1CCC[C@@H](n2cc(C(N)=O)c(-c3ccc(Nc4nc5ccccc5o4)cc3)n2)C1` [Example 27], the IC50 amounted to 300 nM. With `CC#CC(=O)N1CCC2(CC1)CC(c1nc(-c3ccc(Oc4ccccc4)cc3)c(C(N)=O)[nH]1)C2` [Example 87] the figure was 4.3 nM. In the case of `C=CC(=O)N1CC[C@]2(C1)C[C@@H](n1cc(C(N)=O)c(-c3ccc(Oc4ccccc4)cc3)n1)C2` [Example 88], the half-inhibitory concentration (IC50) came out at 21 nM. `C=CC(=O)N1CC[C@]2(C1)C[C@@H](n1nc(-c3ccc(Oc4ccccc4)nc3)c(C(N)=O)c1N)C2` [Example 114] gave an IC50 of 3.4 nM. Consider `CC#CC(=O)N1CC2(CC(c3nc(-c4ccc(Oc5ccccc5)cc4)c(C(N)=O)s3)C2)C1` [Example 58], for which the IC50 was 1.1 nM. With `CC#CC(=O)N1CC2(CC(n3nc(-c4ccc(Cl)c(C(F)(F)F)c4)c(C(N)=O)c3N)C2)C1` [Example 136] the figure was 14 nM. Under `C=CC(=O)N1CCC2(CC1)CC(c1nc(-c3ccc(Oc4ccccc4)cc3)c(C(N)=O)s1)C2` [Example 84] stands 52 nM; under `CC#CC(=O)N1CC[C@]2(C1)C[C@@H](n1nc(-c3ccc(Oc4ccccc4)cc3)c(C(N)=O)c1N)C2` [Example 92], 0.89 nM. Under `CC#CC(=O)N1CC[C@]2(C1)C[C@H](n1cc(C(N)=O)c(-c3ccc(Oc4ccccc4)cc3)n1)C2` [Example 38] stands 13 nM; under `C=CC(=O)N1CC[C@]2(C1)C[C@H](n1nc(-c3ccc(Oc4ccccn4)cc3)c(C(N)=O)c1N)C2` [Example 152], 1.5 nM.

Molecule `NC(=O)c1c(-c2ccc(Oc3ccccc3)cc2)nn(C2CC3(C2)CN(C(=O)/C=C/CN2CCOCC2)C3)c1N` [Example 77] had an IC50 of 1.9 nM. With `C=CC(=O)N1CC[C@]2(C1)C[C@@H](n1nc(-c3ccc(Oc4ccccc4)nc3)c(C(N)=O)c1N)C2` [Example 123] the figure was 9.1 nM; with `C=CC(=O)N1CC2(CC(n3nc(-c4ccc(OC(C)C)cc4)c(C(N)=O)c3N)C2)C1` [Example 105], 13 nM.

On to `C=CC(=O)N1CCC[C@@H](n2cc(C(N)=O)c(-c3ccc(Oc4ccc(OC)cc4)cc3)n2)C1` [Example 67], for which the IC50 came to 38 nM. Under `C=CC(=O)N1CCC[C@@H](n2cc(C(N)=O)c(-c3ccc(Oc4cccc(C#N)c4)cc3)n2)C1` [Example 76] stands 61 nM; under `C=CC(=O)N1CCC[C@@H](n2cc(C(N)=O)c(-c3ccc(Oc4cccc(S(C)(=O)=O)c4)cc3)n2)C1` [Example 65], 330 nM. With `C=CC(=O)N1CC2(CC(n3nc(-c4ccc(F)c(C(F)(F)F)c4)c(C(N)=O)c3N)C2)C1` [Example 144] the figure was 72 nM.

In the case of `CC#CC(=O)N1CC[C@]2(C1)C[C@H](n1nc(-c3ccc(OCC)cc3)c(C(N)=O)c1N)C2` [Example 167], the IC50 was 0.9 nM. Consider `C=CC(=O)N1CC[C@]2(C1)C[C@H](n1nc(-c3ccc(OC(F)(F)F)cc3)c(C(N)=O)c1N)C2` [Example 162], for which the IC50 is 9.2 nM. Consider `C=CC(=O)N1CC2(CC(n3nc(-c4ccc(Oc5ccccc5)cn4)c(C(N)=O)c3N)C2)C1` [Example 103], for which it took 2.8 nM to reach half-maximal inhibition (IC50). `C=CC(=O)N1CC2(CC(n3nc(-c4ccc(OCCC)c(F)c4)c(C(N)=O)c3N)C2)C1` [Example 139] showed a concentration for half-maximal inhibition (IC50) of 16 nM. This IC50 lies about 5.7-fold higher than the previous one. With `C=CC(=O)N1CCCC(Cn2cc(C(N)=O)c(-c3ccc(Oc4ccccc4)cc3)n2)C1` (stereo not drawn) [Example 45], the midpoint of inhibition, the IC50, lay at 10 nM. Compared with the last molecule, the IC50 is about 1.6-fold lower.

The molecule `C=CC(=O)N1CCC(Cn2cc(C(N)=O)c(-c3ccc(Oc4ccccc4)cc3)n2)C1` (stereo not drawn) [Example 42] gave an IC50 of 64 nM. With `CC#CC(=O)N1CC[C@]2(C1)C[C@H](n1nc(-c3ccc(Oc4ccccc4)nc3)c(C(N)=O)c1N)C2` [Example 150] the figure was 0.8 nM; with `C=CC(=O)N1CC[C@]2(C1)C[C@H](n1nc(-c3ccc(Oc4ccccc4)cc3)c(C(N)=O)c1N)C2` [Example 80], 0.93 nM. With `C=CC(=O)N1CC[C@]2(C1)C[C@H](n1nc(-c3ccc(F)c(OCC(F)(F)F)c3)c(C(N)=O)c1N)C2` [Example 146] the figure was 22 nM.

Molecule `C=CC(=O)N1CCC[C@@H](n2cc(C(N)=O)c(-c3cccc(OCc4ccccc4)c3)n2)C1` [Example 3] displayed an IC50 of 810 nM. Consider `C=CC(=O)N1CC[C@]2(C1)C[C@@H](n1nc(-c3ccc(Oc4ccccc4)cn3)c(C(N)=O)c1N)C2` [Example 117], for which the concentration for half-maximal inhibition (IC50) worked out at 1.1 nM. Take `CC#CC(=O)N1CCC2(CC1)CC(n1nc(-c3ccc(Oc4ccccc4)cc3)c(C(N)=O)c1N)C2` [Example 83]: the IC50 was 2.1 nM. Under `CC#CC(=O)N1CC2(CC(n3nc(-c4ccc(OCCC)c(F)c4)c(C(N)=O)c3N)C2)C1` [Example 138] stands 2.2 nM. Under `C=CC(=O)N1CCC[C@@H](n2cc(C(N)=O)c(-c3ccc(Oc4ccc(F)cc4)cc3)n2)C1` [Example 62] stands 93 nM; under `C=CC(=O)NCCn1nc(-c2ccc(Oc3ccccc3)cc2)c(C(N)=O)c1N` [Example 44], 1 nM.

Consider `C=CC(=O)N1CCC[C@@H](n2cc(C(N)=O)c(-c3ccc(OCCOC)cc3)n2)C1` [Example 95], for which the IC50 was 1600 nM. With `CC#CC(=O)N1CCC[C@H]1Cn1cc(C(N)=O)c(-c2ccc(Oc3ccccc3)cc2)n1` [Example 32] the figure was 150 nM; with `CC#CC(=O)N1CCC(Cn2cc(C(N)=O)c(-c3ccc(Oc4ccccc4)cc3)n2)CC1` [Example 49], 180 nM.
